Columns and labels:
SMSr-V5 = molecular target: T1, SMSr-V5 (Homo sapiens, UniProt Q96LT4); experiment: anti-V5 immunoprecipitate, […]:1-DG quantified by LC-MS/MS; type: biochemical
T1 construct: gene SAMD8
T1 sequence (Q96LT4 1-415): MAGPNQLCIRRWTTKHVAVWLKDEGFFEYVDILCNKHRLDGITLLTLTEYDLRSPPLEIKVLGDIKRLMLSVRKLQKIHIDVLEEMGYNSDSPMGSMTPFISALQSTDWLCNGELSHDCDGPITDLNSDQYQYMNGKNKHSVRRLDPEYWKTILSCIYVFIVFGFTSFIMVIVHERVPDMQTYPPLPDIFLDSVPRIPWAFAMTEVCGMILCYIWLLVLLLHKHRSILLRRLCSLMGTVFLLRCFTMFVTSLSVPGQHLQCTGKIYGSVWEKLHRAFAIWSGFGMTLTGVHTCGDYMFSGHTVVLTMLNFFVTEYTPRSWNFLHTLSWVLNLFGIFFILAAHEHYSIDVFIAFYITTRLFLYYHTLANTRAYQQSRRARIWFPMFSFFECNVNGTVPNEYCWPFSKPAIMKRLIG

[1] = substrate: CCCCCCCC/C=C\CCCCCCCC(=O)O[C@H](COC(=O)CCCCCCCCCCCCCCC)COP(=O)(O)O; experiment: DDM/CHS mixed micellar assay, DG quantified by LC-MS/MS; type: biochemical, Homo sapiens; conditions: PAP activity, no ceramide, pH 7.4, 37 °C, 2 h, 0.1% DDM, 0.02% CHS, surface-dilution Km also printed as 3.92 ± 0.536 mol%
Text: DDM/CHS mixed micellar assay, DG quantified by LC-MS/MS on 6× His-SMSr-ΔSAMD

CCCCCCCC/C=C\CCCCCCCC(=O)O[C@H](COC(=O)CCCCCCCCCCCCCCC)COP(=O)(O)O [16:0/18:1-PA, 1-palmitoyl-2-oleoyl (16:0/18:1)-PA]
anti-V5 immunoprecipitate, 16:0/18:1-DG quantified by LC-MS/MS (SMSr-V5; PAP activity): The SMSr expressed in the COS-7 cells exhibited PAP and PI-PLC activities

CCCCCCCC/C=C\CCCCCCCC(=O)O[C@H](COC(=O)CCCCCCCCCCCCCCC)COP(=O)(O)O[C@@H]1[C@H](O)[C@H](O)[C@@H](O)[C@H](O)[C@H]1O [16:0/18:1-PI, 1-palmitoyl-2-oleoyl-sn-glycero-3-phosphoinositol]
anti-V5 immunoprecipitate, 16:0/18:1-DG quantified by LC-MS/MS (SMSr-V5; PI-PLC activity): The SMSr expressed in the COS-7 cells exhibited PAP and PI-PLC activities

B1: 6× His-SMSr-ΔSAMD (Homo sapiens) (protein)
chain: HIDVLEEMGYNSDSPMGSMTPFISALQSTDWLCNGELSHDCDGPITDLNSDQYQYMNGKNKHSVRRLDPEYWKTILSCIYVFIVFGFTSFIMVIVHERVPDMQTYPPLPDIFLDSVPRIPWAFAMTEVCGMILCYIWLLVLLLHKHRSILLRRLCSLMGTVFLLRCFTMFVTSLSVPGQHLQCTGKIYGSVWEKLHRAFAIWSGFGMTLTGVHTCGDYMFSGHTVVLTMLNFFVTEYTPRSWNFLHTLSWVLNLFGIFFILAAHEHYSIDVFIAFYITTRLFLYYHTLANTRAYQQSRRARIWFPMFSFFECNVNGTVPNEYCWPFSKPAIMKRL
Km [1]: 97.4 ± 13.3 µM
